Measurements reported in patent publication US20240261295A1, “COMBINATIONS OF WEE1 INHIBITORS AND ANTI-CD47 ANTIBODIES” (Recurium IP Holdings, LLC, priority 2021, published 2024).

Tested on: RPMI-8226 cells
Experiment: RPMI-8226 xenograft model, tumor volume
Type: in vivo, Mice
Conditions: ZN-c3 60 mg/kg p.o. qd×21, single agent, RPMI-8226 subcutaneous xenograft
Procedure: Mice were inoculated with RPMI-8226 cells subcutaneously on the right flank with the single cell suspension of 95% viable tumor cells ([…]) in 100 μL RPMI 1640 Matrigel mixture (1:1 ratio) without serum for the tumor development. The treatment was started when the mean tumor size reached approximately 200 mm^3, with individual tumor size ranging from 185-235 mm^3. Animals were randomly distributed into treatment groups of 10 animals each and dosed with vehicle and indicated compounds at the indicated dosage and frequency shown in FIG. 2 and Table 1. In FIG. 2, the bottom line with circles is ZN-c3 60 mg/kg p.o. qd×21+Anti-CD47 20 mg/kg ip BIW×3. Anti-CD47 was obtained from Bio X Cell (clone B6.H12, catalog number BE0019-1). Tumor volumes were evaluated twice per week to calculate tumor volume over time, and the mice were weighed twice per week as a surrogate for signs of toxicity. Tumor growth inhibition (TGI) was calculated using the following equation TGI=(1−(Td−T0)/(Cd−C0))×100%. Td and Cd are the mean tumor volumes of the treated and control animals, and T0 and C0 are the mean tumor volumes of the treated and control animals at the start of the experiment. The tumor regression was defined as individual tumor volume (TV) decrease (terminal TV compared to initial TV). The percent tumor regression was calculated using the formula: (1−(Td/T0))×100%.

C=CCn1c(=O)c2cnc(Nc3ccc(N4CCN(C)CC4)cc3)nc2n1-c1ccc2c(n1)[C@@](O)(CC)CC2 [ZN-c3]
TGI % (Day 21): 61%
